Assay results published in the supplement of paper PMC10307832.

Tests used:
Assay in all cases: relative viability (nuclei count vs DMSO), 5 days (fraction); higher = more cells survive
Neratinib + Phenformin = compound: CCOc1cc2ncc(C#N)c(Nc3ccc(OCc4ccccn4)c(Cl)c3)c2cc1NC(=O)/C=C/CN(C)C [Neratinib] + N=C(N)NC(=N)NCCc1ccccc1 [Phenformin] (partner 250 µM)
Method in brief: (§1)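 Relative viability divides the nuclei count in treated wells by that in vehicle wells. Lung cancer cell lines were seeded in 1536-well plates, dosed by pin tool the next day, and fixed and stained after 5 days in one step with final 0.05% Triton X-100, 1% formaldehyde and 1 ug/ml Hoechst. Dosing was a single drug or a fixed anchor-drug dose plus five library-drug doses (not always all listed) in √10 steps, and values are medians of duplicate plates imaged at 4×.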

Neratinib + Pemetrexed = compound: CCOc1cc2ncc(C#N)c(Nc3ccc(OCc4ccccn4)c(Cl)c3)c2cc1NC(=O)/C=C/CN(C)C [Neratinib] + Nc1nc2[nH]cc(CCc3ccc(C(=O)N[C@@H](CCC(=O)O)C(=O)O)cc3)c2c(=O)[nH]1 [Pemetrexed] (partner 0.2 µM)
Method in brief: as §1

Neratinib + Dasatinib = compound: CCOc1cc2ncc(C#N)c(Nc3ccc(OCc4ccccn4)c(Cl)c3)c2cc1NC(=O)/C=C/CN(C)C [Neratinib] + Cc1nc(Nc2ncc(C(=O)Nc3c(C)cccc3Cl)s2)cc(N2CCN(CCO)CC2)n1 [Dasatinib] (partner 0.075 µM)
Method in brief: as §1

Neratinib + Tozasertib = compound: CCOc1cc2ncc(C#N)c(Nc3ccc(OCc4ccccn4)c(Cl)c3)c2cc1NC(=O)/C=C/CN(C)C [Neratinib] + Cc1cc(Nc2cc(N3CCN(C)CC3)nc(Sc3ccc(NC(=O)C4CC4)cc3)n2)n[nH]1 [Tozasertib] (partner 0.1 µM)
Method in brief: as §1

Neratinib + Vorinostat = compound: CCOc1cc2ncc(C#N)c(Nc3ccc(OCc4ccccn4)c(Cl)c3)c2cc1NC(=O)/C=C/CN(C)C [Neratinib] + O=C(CCCCCCC(=O)Nc1ccccc1)NO [Vorinostat] (partner 1 µM)
Method in brief: as §1

Neratinib + Olaparib = compound: CCOc1cc2ncc(C#N)c(Nc3ccc(OCc4ccccn4)c(Cl)c3)c2cc1NC(=O)/C=C/CN(C)C [Neratinib] + O=C(c1cc(Cc2n[nH]c(=O)c3ccccc23)ccc1F)N1CCN(C(=O)C2CC2)CC1 [Olaparib] (partner 8 µM)
Method in brief: as §1

Neratinib + Palbociclib = compound: CCOc1cc2ncc(C#N)c(Nc3ccc(OCc4ccccn4)c(Cl)c3)c2cc1NC(=O)/C=C/CN(C)C [Neratinib] + CC(=O)c1c(C)c2cnc(Nc3ccc(N4CCNCC4)cn3)nc2n(C2CCCC2)c1=O [Palbociclib] (partner 0.5 µM)
Method in brief: as §1

Neratinib + OSI-027 = compound: CCOc1cc2ncc(C#N)c(Nc3ccc(OCc4ccccn4)c(Cl)c3)c2cc1NC(=O)/C=C/CN(C)C [Neratinib] + COc1cccc2cc(-c3nc([C@H]4CC[C@H](C(=O)O)CC4)n4ncnc(N)c34)[nH]c12 [OSI-027] (partner 0.5 µM)
Method in brief: as §1

Neratinib + Luminespib = compound: CCOc1cc2ncc(C#N)c(Nc3ccc(OCc4ccccn4)c(Cl)c3)c2cc1NC(=O)/C=C/CN(C)C [Neratinib] + CCNC(=O)c1noc(-c2cc(C(C)C)c(O)cc2O)c1-c1ccc(CN2CCOCC2)cc1 [Luminespib] (partner 0.01 µM)
Method in brief: as §1

Neratinib + AZD7762 = compound: CCOc1cc2ncc(C#N)c(Nc3ccc(OCc4ccccn4)c(Cl)c3)c2cc1NC(=O)/C=C/CN(C)C [Neratinib] + NC(=O)Nc1cc(-c2cccc(F)c2)sc1C(=O)N[C@H]1CCCNC1 [AZD7762] (partner 0.2 µM)
Method in brief: as §1

Neratinib + Trametinib = compound: CCOc1cc2ncc(C#N)c(Nc3ccc(OCc4ccccn4)c(Cl)c3)c2cc1NC(=O)/C=C/CN(C)C [Neratinib] + CC(=O)Nc1cccc(-n2c(=O)n(C3CC3)c(=O)c3c(Nc4ccc(I)cc4F)n(C)c(=O)c(C)c32)c1 [Trametinib] (partner 0.02 µM)
Method in brief: as §1

Neratinib + Decitabine = compound: CCOc1cc2ncc(C#N)c(Nc3ccc(OCc4ccccn4)c(Cl)c3)c2cc1NC(=O)/C=C/CN(C)C [Neratinib] + Nc1ncn([C@H]2C[C@H](O)[C@@H](CO)O2)c(=O)n1 [Decitabine] (partner 2 µM)
Method in brief: as §1

Neratinib = compound: CCOc1cc2ncc(C#N)c(Nc3ccc(OCc4ccccn4)c(Cl)c3)c2cc1NC(=O)/C=C/CN(C)C [Neratinib]
Method in brief: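 For viability, nuclei in each treated well were divided by nuclei in vehicle wells and the median across plates was taken. Lung cancer cell lines in 1536-well plates were pinned with five library-drug doses (not always all listed) spaced by √10, cultured 5 days without medium change, and imaged at 4× after Hoechst staining, with plates passing only at control CV below 25% and at least one doubling.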

Neratinib + Foretinib = compound: CCOc1cc2ncc(C#N)c(Nc3ccc(OCc4ccccn4)c(Cl)c3)c2cc1NC(=O)/C=C/CN(C)C [Neratinib] + COc1cc2c(Oc3ccc(NC(=O)C4(C(=O)Nc5ccc(F)cc5)CC4)cc3F)ccnc2cc1OCCCN1CCOCC1 [Foretinib] (partner 0.25 µM)
Method in brief: as §1

Cell Line: NCI-H522
- relative viability (Neratinib + Phenformin; first compound 0.01 µM): 0.747
- relative viability (Neratinib + Phenformin; first compound 0.03162 µM): 0.619
- relative viability (Neratinib + Phenformin; first compound 0.1 µM): 0.663
- relative viability (Neratinib + Phenformin; first compound 0.3162 µM): 0.548
- relative viability (Neratinib + Phenformin; first compound 1 µM): 0.604
- relative viability (Neratinib + Pemetrexed; first compound 0.01 µM): 1
- relative viability (Neratinib + Pemetrexed; first compound 0.03162 µM): 0.943
- relative viability (Neratinib + Pemetrexed; first compound 0.1 µM): 0.72
- relative viability (Neratinib + Pemetrexed; first compound 0.3162 µM): 0.673
- relative viability (Neratinib + Pemetrexed; first compound 1 µM): 0.657
- relative viability (Neratinib + Dasatinib; first compound 0.01 µM): 0.94
- relative viability (Neratinib + Dasatinib; first compound 0.03162 µM): 0.809
- relative viability (Neratinib + Dasatinib; first compound 0.1 µM): 0.818
- relative viability (Neratinib + Dasatinib; first compound 0.3162 µM): 0.786
- relative viability (Neratinib + Dasatinib; first compound 1 µM): 0.664
- relative viability (Neratinib + Tozasertib; first compound 0.01 µM): 0.573
- relative viability (Neratinib + Tozasertib; first compound 0.03162 µM): 0.608
- relative viability (Neratinib + Tozasertib; first compound 0.1 µM): 0.571
- relative viability (Neratinib + Tozasertib; first compound 0.3162 µM): 0.46
- relative viability (Neratinib + Tozasertib; first compound 1 µM): 0.499
- relative viability (Neratinib + Vorinostat; first compound 0.01 µM): 1.04
- relative viability (Neratinib + Vorinostat; first compound 0.03162 µM): 1.01
- relative viability (Neratinib + Vorinostat; first compound 0.1 µM): 0.678
- relative viability (Neratinib + Vorinostat; first compound 0.3162 µM): 0.718
- relative viability (Neratinib + Vorinostat; first compound 1 µM): 0.626
- relative viability (Neratinib + Olaparib; first compound 0.01 µM): 0.598
- relative viability (Neratinib + Olaparib; first compound 0.03162 µM): 0.5
- relative viability (Neratinib + Olaparib; first compound 0.1 µM): 0.558
- relative viability (Neratinib + Olaparib; first compound 0.3162 µM): 0.573
- relative viability (Neratinib + Olaparib; first compound 1 µM): 0.459
- relative viability (Neratinib + Palbociclib; first compound 0.01 µM): 1.22
- relative viability (Neratinib + Palbociclib; first compound 0.03162 µM): 0.759
- relative viability (Neratinib + Palbociclib; first compound 0.1 µM): 0.719
- relative viability (Neratinib + Palbociclib; first compound 0.3162 µM): 0.733
- relative viability (Neratinib + Palbociclib; first compound 1 µM): 0.538
- relative viability (Neratinib + OSI-027; first compound 0.01 µM): 0.687
- relative viability (Neratinib + OSI-027; first compound 0.03162 µM): 0.702
- relative viability (Neratinib + OSI-027; first compound 0.1 µM): 0.605
- relative viability (Neratinib + OSI-027; first compound 0.3162 µM): 0.548
- relative viability (Neratinib + OSI-027; first compound 1 µM): 0.497
- relative viability (Neratinib + Luminespib; first compound 0.01 µM): 1.12
- relative viability (Neratinib + Luminespib; first compound 0.03162 µM): 1.12
- relative viability (Neratinib + Luminespib; first compound 0.1 µM): 1.09
- relative viability (Neratinib + Luminespib; first compound 0.3162 µM): 0.913
- relative viability (Neratinib + Luminespib; first compound 1 µM): 0.655
- relative viability (Neratinib + AZD7762; first compound 0.01 µM): 0.781
- relative viability (Neratinib + AZD7762; first compound 0.03162 µM): 0.844
- relative viability (Neratinib + AZD7762; first compound 0.1 µM): 0.878
- relative viability (Neratinib + AZD7762; first compound 0.3162 µM): 0.804
- relative viability (Neratinib + AZD7762; first compound 1 µM): 0.718
- relative viability (Neratinib + Trametinib; first compound 0.01 µM): 0.756
- relative viability (Neratinib + Trametinib; first compound 0.03162 µM): 0.923
- relative viability (Neratinib + Trametinib; first compound 0.1 µM): 0.758
- relative viability (Neratinib + Trametinib; first compound 0.3162 µM): 0.599
- relative viability (Neratinib + Trametinib; first compound 1 µM): 0.543
- relative viability (Neratinib + Decitabine; first compound 0.01 µM): 0.719
- relative viability (Neratinib + Decitabine; first compound 0.03162 µM): 0.671
- relative viability (Neratinib + Decitabine; first compound 0.1 µM): 0.711
- relative viability (Neratinib + Decitabine; first compound 0.3162 µM): 0.557
- relative viability (Neratinib + Decitabine; first compound 1 µM): 0.573
- relative viability (Neratinib; 0.01 µM): 0.982
- relative viability (Neratinib; 0.1 µM): 0.876
- relative viability (Neratinib; 0.3162 µM): 0.692
- relative viability (Neratinib; 1 µM): 0.59

Cell Line: NCI-H1623
- relative viability (Neratinib + Phenformin; first compound 0.01 µM): 0.598
- relative viability (Neratinib + Phenformin; first compound 0.03162 µM): 0.589
- relative viability (Neratinib + Phenformin; first compound 0.1 µM): 0.509
- relative viability (Neratinib + Phenformin; first compound 0.3162 µM): 0.337
- relative viability (Neratinib + Phenformin; first compound 1 µM): 0.236
- relative viability (Neratinib + Dasatinib; first compound 0.01 µM): 0.578
- relative viability (Neratinib + Dasatinib; first compound 0.03162 µM): 0.538
- relative viability (Neratinib + Dasatinib; first compound 0.1 µM): 0.464
- relative viability (Neratinib + Dasatinib; first compound 0.3162 µM): 0.432
- relative viability (Neratinib + Dasatinib; first compound 1 µM): 0.26
- relative viability (Neratinib + Tozasertib; first compound 0.01 µM): 0.477
- relative viability (Neratinib + Tozasertib; first compound 0.03162 µM): 0.424
- relative viability (Neratinib + Tozasertib; first compound 0.3162 µM): 0.224
- relative viability (Neratinib + Tozasertib; first compound 1 µM): 0.229
- relative viability (Neratinib + Foretinib; first compound 0.01 µM): 0.822
- relative viability (Neratinib + Foretinib; first compound 0.03162 µM): 0.856
- relative viability (Neratinib + Foretinib; first compound 0.1 µM): 0.621
- relative viability (Neratinib + Foretinib; first compound 0.3162 µM): 0.31
- relative viability (Neratinib + Foretinib; first compound 1 µM): 0.241
- relative viability (Neratinib + OSI-027; first compound 0.01 µM): 0.496
- relative viability (Neratinib + OSI-027; first compound 0.03162 µM): 0.376
- relative viability (Neratinib + OSI-027; first compound 0.1 µM): 0.365
- relative viability (Neratinib + OSI-027; first compound 0.3162 µM): 0.213
- relative viability (Neratinib + OSI-027; first compound 1 µM): 0.261
- relative viability (Neratinib + Luminespib; first compound 0.01 µM): 0.663
- relative viability (Neratinib + Luminespib; first compound 0.03162 µM): 0.566
- relative viability (Neratinib + Luminespib; first compound 0.1 µM): 0.401
- relative viability (Neratinib + Luminespib; first compound 0.3162 µM): 0.355
- relative viability (Neratinib + Luminespib; first compound 1 µM): 0.341
- relative viability (Neratinib; 0.03162 µM): 0.903
- relative viability (Neratinib; 0.1 µM): 0.755
- relative viability (Neratinib; 0.3162 µM): 0.333
- relative viability (Neratinib; 1 µM): 0.271
